Results on four molecules are retold here after US11364280B2, “Method for blocking stress-induced tumor progression” (Taipei Veterans General Hospital, priority 2018, dated 2022).

The target in data set [1] is T1, His-tagged AGO2 recombinant protein (Homo sapiens, UniProt Q9UKV8).
T1 construct: made in house; host or cells: High Five insect cells (baculovirus, Bac-To-Bac; virus made in Sf9)
The data set can be described thus: Affinity measurement by surface plasmon resonance (SPR). In kind it is binding. As to conditions: AGO2 immobilized on CM5 chip; peptide serial dilution 625 to 10000 nM; Langmuir 1:1 model; read-out: equilibrium dissociation constant (KD). How it is done:
(§1) The relative orientation of peptide-binding site and AGO2 pocket was depicted. […] The recombinant AGO2 protein was immobilized on CM5 chip and incubated with a serial dilution (from 625 to 10000 nM) of the two peptides, respectively. The association and dissociation between TAT-11, TAT-26 and immobilized AGO2 were tested by SPR (top). The association rate constant (Ka), dissociation rate constant (Kd), and equilibrium dissociation constant (KD) were calculated and presented in the chart (bottom).
A Biacore T200 (GE Healthcare) was used to study the binding affinity of the TAT-11 and TAT-26 peptides with recombinant His-tagged AGO2 protein. The recombinant His-AGO2 and TAT peptides were diluted in HBS-P buffer ([…], 150 mM NaCl and 0.005% P20, pH 7.4). To evaluate the binding affinity, recombinant His-AGO2 was immobilized on a CM5 sensor chip (GE Healthcare, BR100012) via amine coupling (˜7000 RU) for 3600 sec at rate of 5 μl/mins, followed by dissociation for 600 s. After injection of each peptide, the surface was regenerated with an injection of 10 mM NaOH. All sensorgrams were double referenced by subtracting the surface effect from the control flow […] and the buffer effect form the blank buffer. The kinetic values Ka, Kd and KD were obtained using Biacore […] Evaluation Software (GE healthcare) assuming the Langmuir 1:1 binding model.

Data set [2] deals with T2, MSI1/AGO2 interaction (Homo sapiens, UniProt Q9UKV8). The data set can be described thus: Split Gaussia luciferase reconstitution reporter assay. In kind it is cell-based. Details: expressed in transfected cells; lysates used for the in vitro read-out. The settings on record: 10 μM peptide; in vitro and in vivo. How it is done:
as §1
FIG. 14A provides schematic presentation of the constructs of full-length, C-terminus, and N-terminus of MSI1 as well as wild-type AGO2 for purifying recombinant proteins. FIG. 14B provides pull-down assay with recombinant MSI1 and AGO2 proteins showing that the C-terminus of MSI1 is essential for the direct MSI1/AGO2 interaction. […] FIG. 14D provides the schematic illustration of the split luciferase reconstitution imaging system to real-time monitor the interaction between MSI1 and AGO2.
To use Gaussia luciferase (Gluc) for detecting protein-protein interaction, we split Gaussia luciferase into NGluc (N-terminal Gluc, 106 a.a.) and CGluc (C-terminal Glue. 79 a.a.)^53,54. The two fragments were amplified by polymerase chain reaction (PCR) and subjected to construct fusion protein with MSI1 and AGO2 by the pcDNA 3.1 and pCMV backbone, respectively. Each fusion protein contains a flexible linker (GGGGS)2 between the protein and polypeptides of split luciferase^55,56. Stable cell lines were obtained by stable transfection of both fusion protein expressive plasmids in 05 MG GBM cell line with Hygromycin B (Sigma Aldrich Co., St. Louis, […]., USA) and G418 sulfate (Merck Co., Berlin, Germany). […] The bioluminescent signals were acquired by Wallac 1420 Victor^2 Microplate Reader (Perkin Elmer, Waltham. Mass., USA) equipped with auto-dispenser to avoid rapid decay of GLuc. […] The region of interests (ROI) was automatically chosen by the Living Image 4.2 software and quantified as photon flux in a certain area per second (photons/s/cm^2).
(In general: Reporter assays use an easily measured gene product as a stand-in for the process of interest.)

Data set [3] can be described thus: in vitro. As to conditions: human.
Protocol: (§2) After 0.5, 1, 2, 4 and 6 hours, cell lysates were collected and the fluorescent intensity was detected by ELISA reader. N=3 at each time point. […] Cells were washed and observed under microscopy at the indicated time points. […] To facilitate comparison of intake and degradation dynamics, mean fluorescence values were normalized to stating fluorescence. All data represent three independent experiments.
Data set [4] addresses T2, MSI1/AGO2 interaction. The data set can be described thus: Co-immunoprecipitation of endogenous MSI1 and AGO2 under hypoxia. In kind it is cell-based. Details: endogenous in cells. As to conditions: 10 μM peptide, hypoxic condition.
The test system of data set [5] is MSI1/AGO2 downstream mRNA. As to the kind of experiment: qRT-PCR of downstream mRNA targets of MSI1-AGO2, hypoxia versus normoxia. In kind it is cell-based, human. As to conditions: six targets. How it is done:
FIG. 4A provides a schematic illustrating the full-length and C-terminal (C-term) fragment of human MSI1. The construct of MSI1 C-term was sub-cloned into p-3×Flag-Myc-CMV expression vector. […] Quantification of the fold changes of binding signals was performed by normalizing IP signals to IgG-precipitated controls. The peaks indicated MSI1 or AGO2 palindromic-binding sequence. […] Purified total RNA was subjected to RT-PCR using primers specific for NF2, TP53, CDKN1A, CCND1, CDK4, and HELLS. The mRNA levels under hypoxia were normalized with that under normoxia and presented as relative fold changes in the chart. […] The relative fold change of the number of viable cells in each day was presented in the graph. […] Xenograft tumor size was monitored from day 2 after injection of Flag-control or Flag-C-term. […] Tumor size was then monitored for 22 days. The expression of MIS1-C-term in the xenograft tumor tissue was assessed by Western blot. […] […]
Oligonucleotide specificity was computer tested (BLAST, National Center for Biotechnology Information. Bethesda. Md., USA) by homology search with the human genome and later confirmed by melting curve analysis. […] Signals were detected using 7900HT Fast Real-time PCR system (Applied Biosystems, Foster City, Calif., USA). […]
For orientation: In qPCR the cycle at which signal appears reflects the starting amount.

Data set [6] deals with 05 MG cells. As to the kind of experiment: Cellular uptake of fluorescein labeled peptides, fluorescence read by ELISA reader.
Protocol: The biological activity of peptides was tested in 05 MG cell line. The cells were treated with different concentration of fluorescein labeled peptides and was measured using ELISA reader.
as §2
For data set [7], the target named is T1, His-tagged AGO2 recombinant protein. As to the kind of experiment: PepSpot high-throughput peptide tiling array. In kind it is binding. The settings on record: 27 peptides of MSI1 C-terminus. How it is done: as §1
To rapidly screen the putative binding hotspots along the C-terminus of MSI1, we mimicked the epitope screening method by dotting the synthetic short peptides on nitrocellulose membrane and incubated with purified AGO2 protein^39. The C-terminus of MSI1 (201-262) was divided into 27 individual synthetic peptides with N-terminal amine attached on the nitrocellulose. Each peptide is 15 amino acids in length and has […] overlapping with the previous neighboring peptide (Suppl. Table IV). The purchased PepSpot membrane (JPT peptide technologies, Berlin, Germany) was firstly rinsed by methanol for 5 minutes, followed by Tris buffer saline supplemented with 0.1% Tween-20 (TBS-T) washing thrice. […]

For data set [8], the system named is MSI1 translocation into the cytosol in 05 MG cells. As to the kind of experiment: MSI1 subcellular translocation (immunostaining, fractionation immunoblot). In kind it is cell-based, human. As to conditions: LMB 10 ng/mL, 2 h pre-treatment; hypoxic and cisplatin treatment. How it is done:
Magnifying power: 200× (top) and 600× (bottom). Quantitation of cells expressing cytoplasmic or nuclear MSI1 is shown in the bar graph on the right. FIG. 1B 05 MG cells pre-treated with or without nuclear export inhibitor leptomycinB (LMB) (10 ng/mL, 2 h) under normoxia or hypoxia conditions for 24 hr were subjected to anti-MSI1 (green) immunostaining and DAPI (blue) nuclear counterstaining. Images were acquired from Carl Zeiss confocal microscope system. The intensity of green fluorescence in nuclear and cytosol was quantified and shown as relative percentage in the graph at the right. […] FIG. 1D provides a schematic showing the mutation sites in the NLS (orange) and NES (red) of human MSI1. All constructs were sub-cloned into p-3×Flag-Myc-CMV expression vector. […] Images were acquired from Carl Zeiss confocal microscope system, and the quantification of fluorescent intensity in the nuclear and cytosolic compartments was shown as relative percentage in the graph at the left. […] Tumor size was measure with a caliper at the indicated time points. […] The tumor size was measured with a caliper at the indicated time points. […]
The ratio of MSI1 expression in each group was presented in the graph. […] Hypoxia-induced apoptosis was withdrawn by the over-expression of wild-type MSI1 but not in mutant MSI1 groups determined by annexin V staining, MTT assay, and colony forming assay. […]
In general terms: Immunoblotting shows a protein as a band on a membrane.

No end group written: not given here.

T1 sequence (Q9UKV8 whole entry): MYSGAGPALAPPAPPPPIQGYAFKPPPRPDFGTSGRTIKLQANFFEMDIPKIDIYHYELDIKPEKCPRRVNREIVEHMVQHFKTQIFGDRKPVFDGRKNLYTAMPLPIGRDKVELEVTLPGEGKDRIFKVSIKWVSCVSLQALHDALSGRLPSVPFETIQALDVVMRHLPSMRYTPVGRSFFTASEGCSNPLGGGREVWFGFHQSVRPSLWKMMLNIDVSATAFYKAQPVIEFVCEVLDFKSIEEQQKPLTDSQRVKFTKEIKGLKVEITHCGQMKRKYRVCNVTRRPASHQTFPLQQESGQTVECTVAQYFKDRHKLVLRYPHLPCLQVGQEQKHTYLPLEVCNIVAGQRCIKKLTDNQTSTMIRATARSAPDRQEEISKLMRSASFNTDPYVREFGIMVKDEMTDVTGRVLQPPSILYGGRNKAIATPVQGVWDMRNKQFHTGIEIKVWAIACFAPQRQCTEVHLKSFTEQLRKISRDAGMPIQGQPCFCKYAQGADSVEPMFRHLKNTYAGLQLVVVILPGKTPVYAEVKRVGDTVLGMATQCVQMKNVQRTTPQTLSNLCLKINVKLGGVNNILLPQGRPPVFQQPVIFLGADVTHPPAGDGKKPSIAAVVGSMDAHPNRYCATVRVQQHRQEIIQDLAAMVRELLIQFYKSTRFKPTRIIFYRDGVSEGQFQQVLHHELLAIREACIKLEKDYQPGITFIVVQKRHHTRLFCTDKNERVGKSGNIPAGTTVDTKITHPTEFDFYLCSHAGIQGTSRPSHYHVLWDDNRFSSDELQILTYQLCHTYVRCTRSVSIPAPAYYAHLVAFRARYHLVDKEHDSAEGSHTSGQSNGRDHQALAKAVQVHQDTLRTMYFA
T2 sequence (Q9UKV8 whole entry): as above

Usually Kd stands for the constant that tells how readily two partners part at equilibrium. A word on the half-life: it is the time in which the quantity being followed falls by half. Low readings indicate rapid decline, high ones slow decline. Consider HSLGGPLIATAFTNGGRKKRRQRRRPPQ [TAT-26], for which the dissociation constant Kd in data set [1] was 4.63 µM. Moreover, the “effect on bioluminescent signal of split Gaussia luciferase” value in data set [2] was “dramatically turned down the bioluminescent signal in vitro and in vivo”. In data set [3], this molecule gave a half-life of at most 4 h. In addition, the “effect on MSI1/AGO2 interaction (co-IP immunoblot)” value in data set [4] was “effectively abrogated the MSI1/AGO2 interaction”. For the same molecule, the “effect of MSI1/AGO2 binding on downstream mRNA” value in data set [5] was “reversed”. For the same molecule, the “time to significant cellular uptake” value in data set [6] (05 MG cells) is “within one hour”. Besides, in data set [6] (read-out: half-uptake concentration (EC50), fluorescein labeled peptides, 05 MG cell line), the EC50 is 9.02 µM.
Regarding HSLGGPLIATAFTNG [compound 26], in data set [7], the “binding of recombinant AGO2 to arrayed peptide” value was “preferentially bound”.
Turning to YQFPEFRVERTPLPS [compound 11], in data set [7], the “binding of recombinant AGO2 to arrayed peptide” value is “preferentially bound”.
`CCC(=C/[C@H](C)C/C=C/C(C)=C/[C@@H](C)C(=O)[C@@H](C)[C@H](O)[C@@H](C)C/C(C)=C/C(=O)O)/C=C/[C@@H]1OC(=O)C=C[C@@H]1C` [Leptomycin B]: the “MSI1 translocation into the cytosol” value in data set [8] is listed as “strongly reduced MSI1 translocation into the cytosol”.
